Holding throughout (format): in vivo
The test system of assay [1] is Tetranychus urticae. Kind of assay: Tetranychus test (OP-resistant/spray treatment) on bean leaf disks. The protocol:
(§1) To produce a suitable preparation of active compound, 1 part by weight of active compound is mixed with the stated amounts of solvent and emulsifier, and the concentrate is diluted with emulsifier-containing water to the desired concentration.
Disks of bean leaves (Phaseolus vulgaris) which are infested by all stages of the greenhouse red spider mite (Tetranychus urticae) are sprayed with an active compound preparation of the desired concentration.
After the desired period of time, the activity in % is determined. 100% means that all spider mites have been killed; 0% means that none of the spider mites have been killed.

In assay [2] the test system is Aphis gossypii. In words: Aphis gossypii test (dipped cotton leaves). As for the experimental part:
as §1
Cotton leaves (Gossypium herbaceum) which are heavily infested by the cotton aphid (Aphis gossypii) are treated by being dipped into the active compound preparation of the desired concentration.
(§2) After the desired period of time, the kill in % is determined. 100% means that all aphids have been killed; 0% means that none of the aphids have been killed. The kill rates determined are entered into Colby's formula.

The test system of assay [3] is Myzus persicae. In words: Myzus persicae test (spray on infested cabbage leaves). As for the experimental part: (§3) To produce a suitable preparation of active compound, 1 part by weight of active compound is mixed with the stated amounts of solvents and emulsifier, and the concentrate is diluted with emulsifier-containing water to the desired concentration.
Cabbage leaves (Brassica oleracea) which are heavily infested by the Green peach aphid (Myzus persicae), are treated by spraying with the active compound preparation of the desired concentration.
as §2

Assay [4] concerns Spodoptera frugiperda. In words: Spodoptera frugiperda larvae test (sprayed cabbage leaves). The protocol: as §3
Cabbage leaves (Brassica oleracea) are treated by spraying with the active compound preparation of the desired concentration and are populated with larvae of the armyworm (Spodoptera frugiperda) while the leaves are still moist.
After the desired period of time, the kill in % is determined. 100% means that all caterpillars have been killed; 0% means that none of the caterpillars have been killed. The kill rates determined are entered into Colby's formula.

Assay [5] relates to Phaedon cochleariae. Kind of assay: Phaedon cochleariae larvae test (sprayed cabbage leaves). The protocol: as §3
Cabbage leaves (Brassica oleracea) are treated by spraying with the active compound preparation of the desired concentration and are populated with larvae of the mustard beetle (Phaedon cochleariae) while the leaves are still moist.
After the desired period of time, the kill in % is determined. 100% means that all beetle larvae have been killed; 0% means that none of the beetle larvae have been killed. The kill rates determined are entered into Colby's formula.

Each structure is given as a SMILES string.

On to `CC1(C)C(/C=C(\Cl)C(F)(F)F)C1C(=O)OC(C#N)c1cccc(Oc2ccccc2)c1` [L-cyhalothrin, lambda-cyhalothrin], for which the “Kill in % after 6d” value in assay [1] (0.032 g/ha) is listed as 0%. Further, the entries for the “Kill in % after 1d” value in assay [2] (0.16 ppm) and in assay [3] (0.16 g/ha) were 20% and 10%, respectively.

With `CC1(C)C(C=C(Cl)Cl)C1C(=O)OC(C#N)c1ccc(F)c(Oc2ccccc2)c1` (stereo not drawn) [β-cyfluthrin, betacyfluthrin], in assay [1] (0.0064 g/ha), the “Kill in % after 6d” value came out at 0%. Besides, the “Kill in % after 1d” value in assay [3] (0.0064 g/ha) came to 0%.

Take `COC1CCC2(CC1)NC(=O)C(c1cc(C)ccc1C)=C2O` (stereo not shown) [compound (Ia)]: the “Kill in % after 1d” value in assay [2] (4 ppm) is recorded as 0%.

Consider `Cc1c(COC(=O)C2C(/C=C(\Cl)C(F)(F)F)C2(C)C)cccc1-c1ccccc1` (stereo not shown) [bifenthrin], for which the “Kill in % after 6d” value in assay [4] (0.8 g/ha) is listed as 0%. Besides, in assay [3] (0.0064 g/ha), the “Kill in % after 1d” value is given as 0%.

As to `CO[C@H]1CC[C@]2(CC1)NC(=O)C(c1cc(C)ccc1C)=C2O` [compound (I)], the “Kill in % after 1d” value in assay [2] (4 ppm) worked out at 0%.

On to `CC1(C)C(C=C(Cl)Cl)C1C(=O)OC(C#N)c1cccc(Oc2ccccc2)c1` (stereo not shown) [zeta-cypermethrin], for which the “Kill in % after 6d” value in assay [5] (0.16 g/ha) worked out at 0%.

On to `CC1(C)C(C=C(Cl)Cl)C1C(=O)OC(C#N)c1cccc(Oc2ccccc2)c1` (stereo not drawn) [alpha-cypermethrin], for which the “Kill in % after 6d” value in assay [5] (0.8 g/ha) is listed as 67%.

With `CC1(C)[C@H](C(=O)O[C@H](C#N)c2cccc(Oc3ccccc3)c2)[C@@H]1C=C(Br)Br` [deltamethrin], the “Kill in % after 2d” value in assay [1] (0.032 g/ha) stood at 10%.

Consider `CCOC(=O)OC1=C(c2cc(C)ccc2C)C(=O)NC12CCC(OC)CC2` (stereo not shown) [compound (II-a)], for which the “Kill in % after 6d” value in assay [1] (0.8 g/ha) worked out at 60%; in assay [1] (4 g/ha) it was 90%; in assay [4] (20 g/ha), 17%; in assay [4] (100 g/ha), 50%; in assay [5] (4 g/ha), 0%; in assay [5] (20 g/ha) it was 0%. The “Kill in % after 6d” value in assay [5] (100 g/ha) stood at 83%. Also, the “Kill in % after 2d” value in assay [1] (4 g/ha) is 30%; in assay [1] (100 g/ha) it was 40%. Also, the “Kill in % after 1d” value came out at 20% in assay [3] (0.8 g/ha) and 0% in assay [3] (20 g/ha).

Take `CC1(C)C(C=C(Cl)Cl)C1C(=O)OC(C#N)c1cccc(Oc2ccccc2)c1` (stereo not shown) [cypermethrin]: the results for the “Kill in % after 6d” value in assay [4] (0.8 g/ha) and in assay [5] (0.8 g/ha) were 0% and 17%, respectively.

Turning to `CCOC(=O)OC1=C(c2cc(C)ccc2C)C(=O)N[C@]12CC[C@@H](OC)CC2` [compound (II)], the “Kill in % after 6d” value in assay [1] (0.8 g/ha) worked out at 50%; in assay [1] (4 g/ha) it was 90%; in assay [4] (20 g/ha), 17%; in assay [4] (100 g/ha), 67%; in assay [5] (4 g/ha), 0%; in assay [5] (20 g/ha), 0%. In addition, the “Kill in % after 6d” value in assay [5] (100 g/ha) turned out to be 50%. For the same molecule, the “Kill in % after 2d” value in assay [1] (4 g/ha) is listed as 50%; in assay [1] (100 g/ha), 70%. For the same molecule, the results for the “Kill in % after 1d” value in assay [3] (0.8 g/ha) and in assay [3] (20 g/ha) were 20% and 0%, respectively.

Regarding `CC1(C)[C@H](/C=C(\Cl)C(F)(F)F)[C@@H]1C(=O)O[C@H](C#N)c1cccc(Oc2ccccc2)c1` [gamma-cyhalothrin], in assay [3] (0.0064 g/ha), the “Kill in % after 1d” value was found to be 0%.

The values above are taken from patent publication US20090281157A1, “Active Ingredient Combinations With Insecticidal and Acaricidal Properties” (Bayer Cropscience AG, priority 2006, published 2009).
